Experiments:
[1] = molecular target: T1, Keap1/NRF2 (Homo sapiens, UniProt Q14145); experiment: NRF2-Keap1 FP Assay (Kelch domain (321-609) of Keap1, TAMRA-labeled NRF2 ETGE peptide); type: binding; settings: Keap1 (321-609) 20 nM, Tamra labeled peptide 8 nM
T1 construct: Keap1 (321-609) is diluted to 40 nM (2×) in 1× assay buffer
Text: One model for the NRF2-Keap1 interaction is through two binding sites in the Neh2 domain on NRF2. The two sites are referred to as the DLG binding motif (latch domain, uM affinity) and the ETGE binding motif (hinge domain, nM affinity). The Keap1 protein consists of an N-terminal region (NTR), a broad complex, tramtrack, and brick a′ brac domain (BTB), an intervening region (IVR), a double glycine repeat domain (DGR or Kelch), and a C-terminal region. The DLG and ETGE motifs of NRF2's Neh2 domain bind to the Kelch domain of Keap1 at different affinities. In the Keap1 Kelch fluorescence polarization (FP) assay, a TAMRA-labeled 16 mer peptide (AFFAQLQLDEETGEFL) containing the ETGE motif of NRF2 and the Kelch domain (321-609) of Keap1 is used. The assay determines if a compound interferes with the binding between Keap1 […] and the TAMRA-labeled peptide. Binding of TAMRA-labeled NRF2 peptide to Keap1 (321-609) results in a high FP signal. If a compound interferes with the binding between the peptide and the protein, it will cause the assay signal to decrease. Thus, assay signal is inversely proportional to binding inhibition.
100 nl of 100× compound dose response curves (serial 3-fold dilutions) in DMSO are stamped using an Echo liquid handling system (Labcyte) into 384-well low volume black assay plates (Greiner, #784076), with DMSO in columns 6 and 18. The top concentration of compound is located in columns 1 and 13. Keap1 (321-609) is diluted to 40 nM (2×) in 1× assay buffer (50 mM Tris, pH 8.0, 100 mM NaCl, 5 mM MgCl2, 1 mM DTT, 2 mM CHAPS, and 0.005% BSA) and 5 ul is added using a Multidrop Combi (Thermo Electron Corporation) equipped with a metal tip dispenser to all wells of the compound plate, except column 18. Column 18 receives only 5 ul of assay buffer. Immediately, 5 uL of 16 nM (2×) of Tamra labeled peptide (AFFAQLQLDEETGEFL, 21st Century Biochemicals) is added to all wells of the plate. The plates are spun at 500 rpm for 1 min, incubated for 1 hr at room temperature, and read on an Analyst GT (Molecular Devices) equipped with excitation (530/25 nm) and emission (580/10 nm) filters designed for Tamra probes. A 561 nm dichroic mirror is also used in the Analyst. The final assay concentrations of Keap1 (321-609) and Tamra labeled peptide are 20 nM and 8 nM, respectively. Fluorescence measurements, represented as mP, are used in the transformation of the data. Compound activity is calculated based on percent inhibition, normalized against controls in the assay (Control 1 contains the Tamra peptide and Keap1 (321-609) together (0% response) and control 2 contains the Tamra peptide alone (100% response)). Data analysis is handled using the software package Abase XE (Surrey, United Kingdom. The % inhibition values are calculated by the equation: 100−(100*((compound response-average control 2)/(average control 1−average control 2))). For calculation of pIC50s, Abase XE uses a four parameter equation.

[2] = test system: NQO1 specific enzyme activity in BEAS-2B cells; experiment: BEAS-2B NQO1 MTT Assay; type: cell-based; settings: NQO1 specific activity induction
Text: NAD(P)H:quinone oxidoreductase 1 (NQO1), also called DT diaphorase, is a homodimeric FAD-containing enzyme that catalyzes obligatory NAD(P)H-dependent two-electron reductions of quinones and protects cells against the toxic and neoplastic effects of free radicals and reactive oxygen species arising from one-electron reductions. The transcription of NQO1 is finely regulated by NRF2, and thus NQO1 activity is a good marker for NRF2 activation. On day one, frozen BEAS-2B cells (ATCC) are thawed in a water bath, counted, and re-suspended at a concentration of 250,000 cells/mL. Fifty microliters of cells are plated in 384 well black clear-bottomed plates. Plates are incubated at 37° C., 5% CO2 overnight. On day two, plates are centrifuged and 50 nL of compound or controls are added to the cells. Plates are then incubated at 37° C., 5% CO2 for 48 hours. On day four, medium is aspirated from the plate and crude cell lysates are made by adding 13 uL of 1× Cell Signaling Technologies lysis buffer with 1 Complete, Mini, EDTA-free Protease Inhibitor Tablet (Roche) for each 10 mL of lysis buffer. After lysis plates are incubated for 20 minutes at room temperature. Two microliters of lysate are removed for use in Cell Titer Glo assay (Promega) and MTT cocktail is prepared (Prochaska et. al. 1998) for measurement of NQO1 activity. Fifty microliters of MTT cocktail is added to each well, plate is centrifuged, and analyzed on an Envision plate reader (Perkin Elmer) using Absorbance 570 nm label for 30 minutes. Product formation is measured kinetically and the pEC50 of NQO1 specific activity induction is calculated by plotting the change in absorbance (Delta OD/min) versus the log of compound concentration followed by 3-parameter fitting.

[3] = molecular target: T2, NRF2/Keap1 (Homo sapiens, UniProt Q14145); experiment: NRF2-Keap1 TR-FRET Assay (full length NRF2 and full length Keap1); type: binding; settings: 25 nM Keap1-FlagHis, 50 nM biotin-NRF2 added
T2 construct: full length NRF2 protein and full length Keap1 protein (Keap1 exists a dimer) are used
T2 sequence (Q14145 whole entry): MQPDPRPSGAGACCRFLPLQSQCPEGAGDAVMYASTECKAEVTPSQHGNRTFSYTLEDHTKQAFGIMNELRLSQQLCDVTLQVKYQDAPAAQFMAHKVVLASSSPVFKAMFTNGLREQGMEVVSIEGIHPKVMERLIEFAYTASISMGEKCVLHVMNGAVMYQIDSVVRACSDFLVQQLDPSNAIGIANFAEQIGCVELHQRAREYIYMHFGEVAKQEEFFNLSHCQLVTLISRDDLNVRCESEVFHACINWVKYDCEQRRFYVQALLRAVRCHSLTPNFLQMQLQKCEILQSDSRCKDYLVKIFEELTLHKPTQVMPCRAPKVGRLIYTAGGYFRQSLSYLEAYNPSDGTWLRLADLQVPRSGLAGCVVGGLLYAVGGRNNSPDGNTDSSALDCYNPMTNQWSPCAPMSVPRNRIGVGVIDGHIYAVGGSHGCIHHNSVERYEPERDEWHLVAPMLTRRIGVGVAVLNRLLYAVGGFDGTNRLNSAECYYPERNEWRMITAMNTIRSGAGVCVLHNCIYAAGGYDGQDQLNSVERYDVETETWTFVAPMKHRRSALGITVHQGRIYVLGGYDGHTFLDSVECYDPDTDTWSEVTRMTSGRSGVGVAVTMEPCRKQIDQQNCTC
Text: In the NRF2-Keap1 TR-FRET (time-resolved fluorescence resonance energy transfer) assay, full length NRF2 protein and full length Keap1 protein (Keap1 exists a dimer) are used. The assay detects the ability of compound to displace the binding of FlagHis-tagged Keap1 with biotinylated, Avi-tagged NRF2 protein. Biotin-NRF2 binds to streptavidin-europium (a component of the detection mix) and Keap1-FlagHis is recognized by anti-Flag APC (allophycocyanin) antibody (also a component of the detection mix). If binding occurs between the two proteins, there will be an energy transfer from the Eu+3 (donor) at 615 nm to the APC (acceptor) at 665 nm. A potential Keap1 inhibitor will cause a reduction in the TR-FRET signal by interfering with the binding of Keap1 to NRF2.
One hundred nanoliters of 100× compound dose response curves (serial 3-fold dilutions) in DMSO are stamped using an Echo liquid handling system (Labcyte) into 384-well, low volume, black assay plates (Greiner, #784076), with DMSO in columns 6 and 18. The top concentration of compound is located in columns 1 and 13. All reagents are diluted in assay buffer (50 mM Tris, pH 8.0, 5 mM MgCl2, 100 mM NaCl, 0.005% BSA, 1 mM DTT, and 2 mM CHAPS). The BSA, DTT, and CHAPS are added to the assay buffer on the day of assay. Using a Multidrop Combi (Thermo Electron Corporation) equipped with a metal tip dispenser, 5 ul of 25 nM Keap1-FlagHis protein is added to all wells of the compound plate, with the exception of the wells in column 18. Wells in column 18 receive 5 ul of assay buffer instead. Plates are centrifuged at 500 rpm for 1 minute, covered with a plate lid, and incubated at 37° C. for 2.25 hours. Plates are then removed from the incubator and allowed to cool to RT for 15 minutes. Five microliters of 50 nM biotin-NRF2 protein is then added to all wells of the plates and the plates are spun at 500 rpm for 1 minute, followed by incubating at 4° C. for 1.25 hours. The plates are then allowed to warm to RT for 15 minutes, followed by the addition of 10 ul of detection mix (1 nM Streptavidin Eu+ W1024 and 5 ug/ml mouse anti-DYKDDDDK IgG conjugated to SureLight APC antibody; both from Columbia Biosciences) to all wells. Plates are spun at 500 rpm for 1 minute, incubated for 1 hour at RT, and read on an Envision plate reader using a 320 nm excitation filter and 615 nm and 665 nm emission filters. Compound response (% inhibition) and potency (pIC50) are calculated based on the ratio of the two emissions (665 nm/615 nm) and then the transformed data is normalized against controls in the assay (control 1=1% DMSO in the presence of NRF2 and Keap1 protein and control 2=1% DMSO in the absence of protein). Data analysis is handled using the software package Abase XE (Surrey, United Kingdom). The % inhibition values are calculated from the ratio (transformed) data by the equation: 100−(100*(compound response-average control 2)/(average control 1−average control 2)).
For calculation of pIC50s, Abase XE uses a four parameter equation.

T1 sequence (Q14145 321-609): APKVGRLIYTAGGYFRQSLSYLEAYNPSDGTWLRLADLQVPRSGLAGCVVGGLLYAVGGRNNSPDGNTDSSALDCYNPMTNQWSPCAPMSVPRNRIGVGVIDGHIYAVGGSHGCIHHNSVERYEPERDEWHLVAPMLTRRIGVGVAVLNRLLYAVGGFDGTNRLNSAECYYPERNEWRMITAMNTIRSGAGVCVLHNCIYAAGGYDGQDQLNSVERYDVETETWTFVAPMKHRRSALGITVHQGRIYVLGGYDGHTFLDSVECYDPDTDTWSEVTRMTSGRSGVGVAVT

Row | IC50 [1] [nM] | IC50 [3] [nM] | SMILES | EC50 ([2]; Homo sapiens, BEAS-2B, 48 h) [nM] | EC50 ([2]; 48 hours) [nM]
1 | 100 to 1000 | 1000 to 10000 | O=C(O)c1cnn(-c2cccc(C3CCCC(n4ncc5c4CCCC5)C3)c2)c1C1CC1 (racemic) [Example 2, 5-Cyclopropyl-1-{3-[3-(4,5,6,7-tetrahydro-1H-indazol-1-yl)cyclohexyl]phenyl}-1H-pyrazole-4-carboxylic Acid] | 1000 to 10000 | –
2 | 10 to 100 | 100 to 1000 | O=C(O)c1cnn(-c2cccc(C3CCCC(C(=O)N4CCCC4C4CCC4)C3)c2)c1C1CC1 (racemic) [Example 13, 1-{3-[3-(2-cyclobutylpyrrolidine-1-carbonyl)cyclohexyl]phenyl}-5-cyclopropyl-1H-pyrazole-4-carboxylic Acid] | 1000 to 10000 | –
3 | 100 to 1000 | 1000 to 10000 | O=C(O)c1cnn(-c2cccc([C@@H]3CCC[C@H](C(=O)N4CCCC5(CCCC5)C4)C3)c2)c1C1CC1 (racemic) [Example 4, 1-[3-(3-{7-Azaspiro[4.5]decane-7-carbonyl}cyclohexyl)phenyl]-5-cyclopropyl-1H-pyrazole-4-carboxylic Acid] | 1000 to 10000 | –
4 | 100 to 1000 | 1000 to 10000 | O=C(O)c1cnn(-c2cccc(C3CCC(n4ncc5c4CCCC5=O)C3)c2)c1C1CC1 (stereo not drawn) [Example 15, 5-Cyclopropyl-1-{3-[3-(4-oxo-4,5,6,7-tetrahydro-indazol-1-yl)-cyclopentyl]-phenyl}-1H-pyrazole-4-carboxylic Acid] | 1000 to 10000 | –
5 | 100 to 1000 | 1000 to 10000 | CCCC1CCCCN1C(=O)[C@H]1CCC[C@@H](c2cccc(-n3ncc(C(=O)O)c3C3CC3)c2)C1 (mixture of isomers) [Example 5, 5-Cyclopropyl-1-{3-[3-(2-propylpiperidine-1-carbonyl)cyclohexyl]phenyl}-1H-pyrazole-4-carboxylic Acid] | 1000 to 10000 | –
6 | 1000 to 10000 | 1000 to 10000 | CCOC[C@@H]1CCCN1C(=O)C1CCCC(c2cccc(-n3ncc(C(=O)O)c3C3CC3)c2)C1 (single isomer, unassigned) [Example 18h] | – | 1000 to 10000
7 | 100 to 1000 | 1000 to 10000 | CCCC1CCc2cnn([C@@H]3CCC[C@H](c4cccc(-n5ncc(C(=O)O)c5C5CC5)c4)C3)c21 (mixture of isomers) [Example 16, 5-Cyclopropyl-1-[3-(3-{6-propyl-1H,4H,5H,6H-cyclopenta[c]pyrazol-1-yl}cyclohexyl)phenyl]-1H-pyrazole-4-carboxylic Acid] | 1000 to 10000 | –
8 | 100 to 1000 | 1000 to 10000 | CC1(C)CCCN1C(=O)C1CCCC(c2cccc(-n3ncc(C(=O)O)c3C3CC3)c2)C1 (racemic) [Example 6, 5-cyclopropyl-1-{3-[3-(2,2-dimethylpyrrolidine-1-carbonyl)cyclohexyl]phenyl}-1H-pyrazole-4-carboxylic Acid] | 1000 to 10000 | –

Source: patent US10351530B2, “Arylcyclohexyl pyrazoles as NRF2 regulators” (GlaxoSmithKline Intellectual Property Development Limited, priority 2015, dated 2019)
